Data taken from PubChem BioAssay AID1963866 (Molecular Pharmacology Branch, DTP, NCI, 2024).

Tested on: PDC KRAS tumor spheroids with HUVEC/MSC, viability
Assay: Anticancer human tumor 349418-098-R-PDC patient-derived lung adenocarcinoma cell line growth inhibition [KRAS2]
Settings: for viability, T/C: stronger effect = lower value
Procedure, shortened: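 KRAS-mutant tumor cells were grown as spheroids with HUVEC endothelial cells and human MSCs as stroma. Targeted agents were tested alone and with KRAS pathway inhibitors. Doses started at or near clinical Cmax, or 10 microM, descending half-log.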

[1] = curve of first compound, second compound 0.1 µM
[2] = curve of first compound, second compound 0.316 µM
[3] = curve of first compound, second compound 1 µM
[4] = curve of first compound, second compound 3.16 µM
[5] = curve of first compound, second compound 10 µM
[6] = second compound 0.1 µM, first compound 0.01 µM
[7] = second compound 0.1 µM, first compound 0.0316 µM
[8] = second compound 0.1 µM, first compound 0.1 µM
[9] = second compound 0.1 µM, first compound 0.316 µM
[10] = second compound 0.1 µM, first compound 1 µM
[11] = second compound 0.1 µM, first compound 3.16 µM
[12] = second compound 0.316 µM, first compound 0.01 µM
[13] = second compound 0.316 µM, first compound 0.0316 µM
[14] = second compound 0.316 µM, first compound 0.1 µM
[15] = second compound 0.316 µM, first compound 0.316 µM
[16] = second compound 0.316 µM, first compound 1 µM
[17] = second compound 0.316 µM, first compound 3.16 µM
[18] = second compound 1 µM, first compound 0.01 µM
[19] = second compound 1 µM, first compound 0.0316 µM
[20] = second compound 1 µM, first compound 0.1 µM
[21] = second compound 1 µM, first compound 0.316 µM
[22] = second compound 1 µM, first compound 1 µM
[23] = second compound 1 µM, first compound 3.16 µM
[24] = second compound 3.16 µM, first compound 0.01 µM
[25] = second compound 3.16 µM, first compound 0.0316 µM
[26] = second compound 3.16 µM, first compound 0.1 µM
[27] = second compound 3.16 µM, first compound 0.316 µM
[28] = second compound 3.16 µM, first compound 1 µM
[29] = second compound 3.16 µM, first compound 3.16 µM
[30] = second compound 10 µM, first compound 0.0316 µM
[31] = second compound 10 µM, first compound 0.1 µM
[32] = second compound 10 µM, first compound 0.316 µM
[33] = second compound 10 µM, first compound 1 µM
[34] = second compound 10 µM, first compound 3.16 µM
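Also: spheroids exposed to compounds for seven days before readout.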

In the case of CC1COCCN1c1cc(-c2ccnn2C)c2ccnc(-c3ccn[nH]3)c2n1 (configuration not stated) + CC1OCC2(CCN(c3cnc(Sc4ccnc(N)c4Cl)c(N)n3)CC2)C1N, the IC50 [1] is reported as 30.4 nM, the IC50 [2] is reported as 26.9 nM and the IC50 [3] is reported as 37.8 nM. For the same molecule, the IC50 [4] was 37.4 nM, the IC50 [5] was 25.4 nM and the viability, T/C [6] was 98.1%. The viability, T/C [7] was 48.2%, the viability, T/C [8] was 9.73% and the viability, T/C [9] was 7%. The viability, T/C [10] was 4.41%, the viability, T/C [11] was 4.8% and the viability, T/C [12] was 115%. It also gave a viability, T/C [13] of 39.4%, a viability, T/C [14] of 9.52% and a viability, T/C [15] of 7.35%. The viability, T/C [16] was 4.82%, the viability, T/C [17] was 4.26% and the viability, T/C [18] was 117%. The viability, T/C [19] was 56.9%, the viability, T/C [20] was 12.2% and the viability, T/C [21] was 7.13%. The viability, T/C [22] was 5.99%, the viability, T/C [23] was 4.5% and the viability, T/C [24] was 97.7%. It also gave a viability, T/C [25] of 56.8%, a viability, T/C [26] of 10.1% and a viability, T/C [27] of 6.94%. For the same molecule, the viability, T/C [28] was 4.63%, the viability, T/C [29] was 4.81% and the viability, T/C (second compound 10 µM, first compound 0.01 µM) was 89.6%. For the same molecule, the viability, T/C [30] was 40.6%, the viability, T/C [31] was 9.52% and the viability, T/C [32] was 5.38%. It also gave a viability, T/C [33] of 4.95% and a viability, T/C [34] of 4.71%.

For CC(C)n1nc(-c2ccc3oc(N)nc3c2)c2c(N)ncnc21, the viability, T/C (compound 0.000316 µM) was 87.2% [middle of 5 runs], the viability, T/C (compound 0.001 µM) was 47.6% [middle of 5 runs] and the viability, T/C (compound 0.00316 µM) was 17.1% [middle of 5 runs]. The viability, T/C (compound 0.01 µM) was 10.7% [middle of 5 runs], the viability, T/C (compound 0.0316 µM) was 9.1% [middle of 5 runs] and the viability, T/C (compound 0.1 µM) was 8.83% [middle of 5 runs]. The IC50 (curve of compound) was 0.92 nM [middle of 5 runs].

With COc1cc(Nc2ncc3c(n2)-c2ccc(Cl)cc2C(c2c(F)cccc2OC)=NC3)ccc1C(=O)O + COc1cc2nc(C)nc(NC(C)c3cc(N)cc(C(F)(F)F)c3)c2cc1OC1CCOC1 the IC50 [1] was 47.4 nM, the IC50 [2] was 36 nM and the IC50 [3] was < 31.6 nM. For the same molecule, the IC50 [4] was < 31.6 nM, the IC50 [5] was < 31.6 nM and the viability, T/C [7] was 60%. The viability, T/C [8] was 30.7%, the viability, T/C [9] was 31.8% and the viability, T/C [10] was 34.2%. It also gave a viability, T/C [11] of 23.3%, a viability, T/C (second compound 0.1 µM, first compound 10 µM) of 23.8% and a viability, T/C [13] of 52.8%. For the same molecule, the viability, T/C [14] was 27.4%, the viability, T/C [15] was 30.8% and the viability, T/C [16] was 26.5%. For the same molecule, the viability, T/C [17] was 25.4%, the viability, T/C (second compound 0.316 µM, first compound 10 µM) was 23.4% and the viability, T/C [19] was 48.5%. The viability, T/C [20] was 31.2%, the viability, T/C [21] was 36.2% and the viability, T/C [22] was 33%. It also gave a viability, T/C [23] of 28.3%, a viability, T/C (second compound 1 µM, first compound 10 µM) of 20.5% and a viability, T/C [25] of 45.8%. For the same molecule, the viability, T/C [26] was 29.4%, the viability, T/C [27] was 28% and the viability, T/C [28] was 25.5%. The viability, T/C [29] was 18.4%, the viability, T/C (second compound 3.16 µM, first compound 10 µM) was 19.1% and the viability, T/C [30] was 16.7%. The viability, T/C [31] was 22%, the viability, T/C [32] was 12.4% and the viability, T/C [33] was 9.24%. For the same molecule, the viability, T/C [34] was 16.1% and the viability, T/C (second compound 10 µM, first compound 10 µM) was 6%.

Molecule CC(C)n1nc(-c2ccc3oc(N)nc3c2)c2c(N)ncnc21 + C=CC(=O)N1CCN(c2nc(OCC3CCCN3C)nc3c2CCN(c2cccc4cccc(C)c24)C3)CC1CC#N has an IC50 (curve of first compound, second compound 0.0316 µM) of 1.04 nM, an IC50 [1] of 0.76 nM and an IC50 [2] of 0.891 nM. For the same molecule, the IC50 [3] was 0.673 nM, the IC50 [4] was < 0.316 nM and the viability, T/C (second compound 0.0316 µM, first compound 0.000316 µM) was 91.5%. It also gave a viability, T/C (second compound 0.0316 µM, first compound 0.001 µM) of 51.2%, a viability, T/C (second compound 0.0316 µM, first compound 0.00316 µM) of 14.9% and a viability, T/C (second compound 0.0316 µM, first compound 0.01 µM) of 9.06%. It also gave a viability, T/C (second compound 0.0316 µM, first compound 0.0316 µM) of 8.26%, a viability, T/C (second compound 0.0316 µM, first compound 0.1 µM) of 8.57% and a viability, T/C (second compound 0.1 µM, first compound 0.000316 µM) of 95.8%. For the same molecule, the viability, T/C (second compound 0.1 µM, first compound 0.001 µM) was 35.6%, the viability, T/C (second compound 0.1 µM, first compound 0.00316 µM) was 13.9% and the viability, T/C [6] was 8.16%. The viability, T/C [7] was 7.73%, the viability, T/C [8] was 7.41% and the viability, T/C (second compound 0.316 µM, first compound 0.000316 µM) was 92.3%. The viability, T/C (second compound 0.316 µM, first compound 0.001 µM) was 45.2%, the viability, T/C (second compound 0.316 µM, first compound 0.00316 µM) was 18% and the viability, T/C [12] was 9.14%. For the same molecule, the viability, T/C [13] was 7.31%, the viability, T/C [14] was 7.9% and the viability, T/C (second compound 1 µM, first compound 0.000316 µM) was 71.8%. It also gave a viability, T/C (second compound 1 µM, first compound 0.001 µM) of 38.3%, a viability, T/C (second compound 1 µM, first compound 0.00316 µM) of 17.3% and a viability, T/C [18] of 7.45%. It also gave a viability, T/C [19] of 6.31%, a viability, T/C [20] of 6.74% and a viability, T/C (second compound 3.16 µM, first compound 0.000316 µM) of 1%. The viability, T/C (second compound 3.16 µM, first compound 0.001 µM) was 0.25%, the viability, T/C (second compound 3.16 µM, first compound 0.00316 µM) was 1.1% and the viability, T/C [24] was 0.13%. It also gave a viability, T/C [25] of 0.22% and a viability, T/C [26] of 0.17%.
